In US20040019080A1, “Prevention and treatment of migraine and other recurrent headaches using leukotriene LTD4 receptor blocker drugs” (priority 1998, published 2004):
“Also recorded” adds a separate entry of the source. Where two headings read alike, the source gives them in different places.

What was measured:
[1] = system: asthma patients; details: cited from earlier work; for safety and tolerability in chronic use: used every day over a continuous period of years
[2] = system: patients who suffered from migraine without aura; assay: Open-label clinical trial of daily montelukast in long-term migraine sufferers
[3] = system: asthma patients; details: cited from earlier work
[4] = system: patients with migraines; assay: Post-publication and unsolicited patient/physician reports, chronic and emergent migraine treatment; type: in vivo, human; details: unsolicited letters, comments, website posting
Excerpt: The Applicant herein (Sheftell) initially published their leukotriene-migraine findings in abstract form and as a poster session in mid-1999, at a conference of physicians who specialize in treating headaches. That presentation was summarized shortly thereafter in Family Practice News, a newsletter for physicians, and it was followed in February 2000 by a full article in a refereed journal (Sheftell et al, “Montelukast in the prophylaxis of migraine: “potential role for leukotriene modifiers,” Headache 40: 158-63 (2000)).

[5] = system: LTE4 receptors; details: cited from earlier work
[6] = target: T1, LTD4 receptors (Homo sapiens, UniProt Q9Y271); details: cited from earlier work
T1 sequence (Q9Y271 1-337): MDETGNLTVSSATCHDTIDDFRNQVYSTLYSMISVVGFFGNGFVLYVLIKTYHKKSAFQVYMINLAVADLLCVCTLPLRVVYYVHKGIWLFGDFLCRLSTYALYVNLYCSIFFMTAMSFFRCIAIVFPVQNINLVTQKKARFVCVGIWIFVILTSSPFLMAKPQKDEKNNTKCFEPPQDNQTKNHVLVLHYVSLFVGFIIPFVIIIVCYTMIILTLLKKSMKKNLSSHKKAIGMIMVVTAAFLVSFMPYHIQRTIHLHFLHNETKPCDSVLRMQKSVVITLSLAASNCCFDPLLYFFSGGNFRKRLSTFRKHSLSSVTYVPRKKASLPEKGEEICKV

[7] = system: LTC4 receptors; details: cited from earlier work

SMILES	safety and tolerability in chronic use [1]	adverse events reported by patients ([2]; 3-month treatment, 17 patients)	patients reporting a decrease in the number of moderate headaches ([2]; all reporting patients) [%]	number of mild headaches reported during treatment ([2]; mild category, baseline 1.53, mean per month (FIG. 2))	mean number of moderate attacks per month during treatment ([2]; moderate category, baseline 5.5, not statistically significant) [attacks per month]	patients showing a greater than 60% reduction in the frequency of severe attacks ([2]; montelukast 10 mg tablets daily, 3-month treatment vs 2-month baseline, 17 patients) [%]	patients with reduction in frequency of severe attacks after dose escalation ([2]; of 4 patients escalated from 10 mg once daily to 10 mg twice daily) [patients]	patients with a 33% or greater reduction in the frequency of severe attacks ([2]; of the remaining 15 patients) [patients]	mean number of severe attacks per month during treatment ([2]; severe category, baseline 2.78, p<0.025) [attacks per month]	asthma patients reporting headaches ([3]; nearly 2000 asthma patients tested) [%]	time of daily oral ingestion before noticeable effects in reducing the frequency of asthma attacks ([1]; tablets, daily oral)	reported outcome of chronic daily use for migraines [4]	asthma patients reporting headaches ([3]; more than 4000 asthma patients tested) [%]	blocking / activity at LTE4 receptors [5]	blocking / activity at LTD4 receptors [6]	blocking of LTC4 receptors [7]	users reporting headaches as unwanted side effect ([3]; zileuton 4 times daily at 600 mg, placebo 24.0%) [%]
CC(C)(O)c1ccccc1CC[C@@H](SCC1(CC(=O)O)CC1)c1cccc(/C=C/c2ccc3ccc(Cl)cc3n2)c1 [montelukast]	generally safe, well-tolerated, and free of serious side effects	no adverse events were reported; also recorded: None of the patients reported any adverse effects	70	2.02	4.68	41	4	13	1.31	18.4							
COc1cc(C(=O)NS(=O)(=O)c2ccccc2C)ccc1Cc1cn(C)c2ccc(NC(=O)OC3CCCC3)cc12 [zafirlukast]	generally safe, well-tolerated, and free of serious side effects										about 4 weeks	benefitted more from that treatment than from any other treatment	12.9	appear to block; also recorded: some level of activity	appear to block; also recorded: some level of activity	do not appear to block	
CC(c1cc2ccccc2s1)N(O)C(N)=O (stereo not drawn) [zileuton]																	24.6
